Assay results reported in patent publication US20120301468A1, “ANTI-MN ANTIBODIES AND METHODS OF USING SAME” (BAYER HEALTHCARE LLC, priority 2005, published 2012).

Tested on: MN non-expressing cells (H460)
Test: Spindle formation / tubulin staining, H460
Type: cell-based
Conditions: tubulin stained with fluorescence labeled antibody
From the text: The cytotoxic drug MMAE delivered by 3ee9/MMAE is a tubulin inhibitor that prevents spindle formation during cell mitosis resulting in G2/M arrest. The tubulin is stained with florescence labeled antibody. […] These studies confirmed that the antibody drug conjugate 3ee9/MMAE kills cell through targeted tubulin disruption.

3ee9/MMAE: human anti-MN IgG1 antibody 3ee9 conjugated to Monomethylauristatin E (MMAE)
effect on spindle formation: No activity
